# Reference: PMC11944884, “Bioactive Secondary Metabolites of Two Chinese Edible Boletes, Phlebopus portentosus and Butyriboletus roseoflavus” (Molecules, 2025)
# How the values were obtained:
# Hela229 = assay: Cytotoxicity CCK-8 assay, Hela229; type: cell-based; conditions: Homo sapiens, HeLa 229
# SGC7901 = assay: Cytotoxicity CCK-8 assay, SGC7901; type: cell-based; conditions: Homo sapiens, SGC-7901
# PC-3 = assay: Cytotoxicity CCK-8 assay, PC-3; type: cell-based; conditions: Homo sapiens
# BEL7402 = assay: Cytotoxicity CCK-8 assay, BEL7402; type: cell-based; conditions: Homo sapiens, Bel-7402
# MCF-7/ADR = assay: Cytotoxicity CCK-8 assay, MCF-7/ADR; type: cell-based; conditions: Homo sapiens, NCI/ADR-RES
# SH-SY5Y cells [1] = assay: Neuroprotection against Aβ25−35-induced neurotoxicity (MTT); conditions: Homo sapiens, SH-SY5Y, read-out: Cell viability (% of control group)
# Method: The cells, obtained from the American Type Culture Collection (ATCC, Manassas, VA, USA) at high passages, maintained at 37 °C in a humidified atmosphere containing 5% CO2. Cells were seeded into 96-well plates at a density of 2 × 10^5 cells/mL in MEM/F12 medium supplemented with 10% (v/v) fetal bovine serum. Experiments were carried out after 24 h of seeding. Test compounds and positive control (epigallocatechin-3-gallate, EGCG; NAC) were made to 10^−2 M stock solutions with DMSO and then diluted to corresponding concentrations with cell culture medium. Cells were incubated with test compounds or EGCG (10 μM, Sigma, St. Louis, MO, USA, purity > 98%)/NAC for 2 h, followed by exposure to 80 μM H2O2 or 10 μM Aβ25−35 for another 24 h without medium replacement. After treatment, 10 μL of MTT (5 mg/mL) was added to each well and incubated at 37 °C for 3 h. The cells were finally lysed with 100% DMSO, and the absorbance of MTT formazan was measured at 490 nm using a microplate reader.
# SH-SY5Y cells [2] = assay: Neuroprotection against H2O2-induced neurotoxicity (MTT); type: cell-based; conditions: Homo sapiens, SH-SY5Y, read-out: Cell viability (% of control group)
# influenza virus A/H3N2 = assay: microbe, parasite or virus in culture; type: cell-based, influenza virus A (H3N2 strain); conditions: for EC50: MDCK
# [3] = test system: influenza virus B/Victoria strain; assay: microbe, parasite or virus in culture; type: cell-based; conditions: MDCK
# [4] = test system: A/H3N2 and B/Victoria strains; assay: microbe, parasite or virus in culture; type: cell-based; conditions: Influenza A virus, range over compounds 22 and 26 and both strains
# [5] = Influenza A virus, H3N2, MDCK, read-out: CPE inhibition
structure (smiles),measurement,setting,value
"O=C1NCCc2c1[nH]c1ccccc21 [Compound 9, 1,2,3,4-tetrahydro-1-oxo-β-carboline]",IC50,Hela229; Hela229,10.8 µM
same,inhibition at 6.25 µM,"Hela229; Hela229, 6.25 μM, 48 h, read-out: Cell proliferation inhibition (%)",37.1%
same,inhibition at 12.5 µM,"Hela229; Hela229, 12.5 μM, 48 h, read-out: Cell proliferation inhibition (%)",53.7%
same,inhibition at 25 µM,"Hela229; Hela229, 25 μM, 48 h, read-out: Cell proliferation inhibition (%)",68.7%
same,inhibition at 50 µM,"Hela229; Hela229, 50 μM, 48 h, read-out: Cell proliferation inhibition (%)",83.3%
same,inhibition at 100 µM,"Hela229; Hela229, 100 μM, 48 h, read-out: Cell proliferation inhibition (%)",88%
same,IC50,SGC7901; SGC7901,> 50 µM
same,inhibition at 6.25 µM,"SGC7901; SGC7901, 6.25 μM, 48 h, read-out: Cell proliferation inhibition (%)",13.2%
same,inhibition at 12.5 µM,"SGC7901; SGC7901, 12.5 μM, 48 h, read-out: Cell proliferation inhibition (%)",17.5%
same,inhibition at 25 µM,"SGC7901; SGC7901, 25 μM, 48 h, read-out: Cell proliferation inhibition (%)",27.1%
same,inhibition at 50 µM,"SGC7901; SGC7901, 50 μM, 48 h, read-out: Cell proliferation inhibition (%)",37.4%
same,inhibition at 100 µM,"SGC7901; SGC7901, 100 μM, 48 h, read-out: Cell proliferation inhibition (%)",44.3%
same,IC50,PC-3; PC-3,> 50 µM
same,inhibition at 6.25 µM,"PC-3; PC-3, 6.25 μM, 48 h, read-out: Cell proliferation inhibition (%)",3%
same,inhibition at 12.5 µM,"PC-3; PC-3, 12.5 μM, 48 h, read-out: Cell proliferation inhibition (%)",1.7%
same,inhibition at 25 µM,"PC-3; PC-3, 25 μM, 48 h, read-out: Cell proliferation inhibition (%)",4%
same,inhibition at 50 µM,"PC-3; PC-3, 50 μM, 48 h, read-out: Cell proliferation inhibition (%)",2.6%
same,inhibition at 100 µM,"PC-3; PC-3, 100 μM, 48 h, read-out: Cell proliferation inhibition (%)",14%
same,IC50,BEL7402; BEL7402,41.5 µM
same,inhibition at 6.25 µM,"BEL7402; BEL7402, 6.25 μM, 48 h, read-out: Cell proliferation inhibition (%)",12.5%
same,inhibition at 12.5 µM,"BEL7402; BEL7402, 12.5 μM, 48 h, read-out: Cell proliferation inhibition (%)",24.4%
same,inhibition at 25 µM,"BEL7402; BEL7402, 25 μM, 48 h, read-out: Cell proliferation inhibition (%)",44.4%
same,inhibition at 50 µM,"BEL7402; BEL7402, 50 μM, 48 h, read-out: Cell proliferation inhibition (%)",56.4%
same,inhibition at 100 µM,"BEL7402; BEL7402, 100 μM, 48 h, read-out: Cell proliferation inhibition (%)",63.6%
same,IC50,MCF-7/ADR,> 50 µM
same,inhibition at 6.25 µM,"MCF-7/ADR; 6.25 μM, 48 h, read-out: Cell proliferation inhibition (%)",-0.9%
same,inhibition at 12.5 µM,"MCF-7/ADR; 12.5 μM, 48 h, read-out: Cell proliferation inhibition (%)",1.7%
same,inhibition at 25 µM,"MCF-7/ADR; 25 μM, 48 h, read-out: Cell proliferation inhibition (%)",3.4%
same,inhibition at 50 µM,"MCF-7/ADR; 50 μM, 48 h, read-out: Cell proliferation inhibition (%)",2.9%
same,inhibition at 100 µM,"MCF-7/ADR; 100 μM, 48 h, read-out: Cell proliferation inhibition (%)",2.5%
"O=C1O/C(=C(/C(=O)O)c2ccc(O)cc2)C(O)=C1c1ccc(O)c(O)c1 [Compound 18, xerocomic acid]",viability at 2.5 µM,SH-SY5Y cells [1],78.2 ± 1.53%
same,viability at 5 µM,SH-SY5Y cells [1],77.6 ± 1.97%
same,viability at 10 µM,SH-SY5Y cells [1],80.3 ± 1.39%
same,viability at 20 µM,SH-SY5Y cells [1],81.2 ± 1.79%
same,viability at 40 µM,SH-SY5Y cells [1],90.5%
"O=C1O/C(=C(/C(=O)O)c2ccc(O)c(O)c2)C(O)=C1c1ccc(O)c(O)c1 [Compound 19, variegatic acid]",viability at 2.5 µM,SH-SY5Y cells [2],56.4 ± 1.79%
same,viability at 5 µM,SH-SY5Y cells [2],59.3 ± 2.94%
same,viability at 10 µM,SH-SY5Y cells [2],63.7 ± 2.8%
same,viability at 20 µM,SH-SY5Y cells [2],71.5%
same,viability at 40 µM,SH-SY5Y cells [2],81.9%
"CC(C)[C@@H](C)/C=C/[C@@H](C)[C@H]1CC[C@H]2C3=C[C@@H](O)[C@@]4(O)C[C@@H](O)CC[C@]4(C)[C@H]3CC[C@]12C [Compound 22, cerevisterol]",IC50,"influenza virus A/H3N2; Influenza A virus, H3N2, MDCK",9.6 µM
same,inhibition at 1.56 µM,influenza virus A/H3N2; [5],0%
same,inhibition at 3.13 µM,influenza virus A/H3N2; [5],0%
same,inhibition at 6.25 µM,influenza virus A/H3N2; [5],0%
same,inhibition at 12.5 µM,influenza virus A/H3N2; [5],75%
same,inhibition at 25 µM,influenza virus A/H3N2; [5],75%
same,EC50,influenza virus A/H3N2,9.6 µM
same,EC50,[3],6.6 µM
same,IC50,[3],6.6 µM
same,inhibition at 1.56 µM,[3]; read-out: CPE inhibition,0%
same,inhibition at 3.13 µM,[3]; read-out: CPE inhibition,0%
same,inhibition at 6.25 µM,[3]; read-out: CPE inhibition,10%
same,inhibition at 12.5 µM,[3]; read-out: CPE inhibition,75%
same,inhibition at 25 µM,[3]; read-out: CPE inhibition,75%
same,EC50,[4],3.6 to 9.6 µM
"CC(C)[C@@H](C)/C=C/[C@@H](C)[C@H]1CC[C@H]2C3=C(CC[C@]12C)[C@@]1(C)CC[C@H](O)C[C@@]12O[C@H]2[C@H]3O [Compound 26, (22E,24R)-5α,6α-epoxy-ergosta-8,22-dien-3β,7α-diol]",IC50,"influenza virus A/H3N2; Influenza A virus, H3N2, MDCK",4 µM
same,inhibition at 0.78 µM,influenza virus A/H3N2; [5],3.3%
same,inhibition at 1.56 µM,influenza virus A/H3N2; [5],15%
same,inhibition at 3.13 µM,influenza virus A/H3N2; [5],27.5%
same,inhibition at 6.25 µM,influenza virus A/H3N2; [5],75%
same,inhibition at 12.5 µM,influenza virus A/H3N2; [5],82.5%
same,EC50,influenza virus A/H3N2,4 µM
same,EC50,[3],3.6 µM
same,IC50,[3],3.6 µM
same,inhibition at 0.78 µM,[3]; read-out: CPE inhibition,6.6%
same,inhibition at 1.56 µM,[3]; read-out: CPE inhibition,15%
same,inhibition at 3.13 µM,[3]; read-out: CPE inhibition,25%
same,inhibition at 6.25 µM,[3]; read-out: CPE inhibition,75%
same,inhibition at 12.5 µM,[3]; read-out: CPE inhibition,75%
same,EC50,[4],3.6 to 9.6 µM
